Source: the supplement of paper PMC10331698
± gives the standard deviation of the averaged measurements.

How the values were obtained:
Assay in all cases: level (log10 ratio to DMSO vehicle control); higher = higher biomarker level / cell amount than vehicle control
Details in all cases: in DMSO
Perfluorooctanamidine = compound: N=C(N)C(F)(F)C(F)(F)C(F)(F)C(F)(F)C(F)(F)C(F)(F)C(F)(F)F [Perfluorooctanamidine]
Description: (§1)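 BioMAP Diversity Plus panel of 12 human primary cell co-culture systems (3C, 4H, LPS, SAg, BT, BF4T, BE3C, CASM3C, HDF3CGF, KF3CT, MyoF, Mphg). Compounds were added 1 h before stimulation and left for 24 h (MyoF 48 h; BT 72 h for soluble read-outs or 6 d for IgG). Biomarkers were read by ELISA, cytotoxicity by SRB, PBMC viability and proliferation by Alamar Blue. Each well value was divided by the mean of 8 DMSO control wells on the same plate and log10 transformed; duplicate blinded samples were tested at 4 concentrations.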

[1] = compound: O=C(O)CCC(F)(F)C(F)(F)C(F)(F)C(F)(F)C(F)(F)F [2H,2H,3H,3H-Perfluorooctanoic acid]
Description: as §1

Perfluorohexanoic acid = compound: O=C(O)C(F)(F)C(F)(F)C(F)(F)C(F)(F)C(F)(F)F [Perfluorohexanoic acid]
Description: as §1

[2] = compound: O=C(O)C(F)(F)C(F)(F)C(F)(F)C(F)(F)C(F)(F)C(F)(F)C(F)(F)C(F)(F)Cl [9-Chloro-perfluorononanoic acid]
Description: as §1

[3] = compound: OCC(F)(F)C(F)(F)C(F)(F)C(F)(F)C(F)(F)C(F)F [1H,1H,7H-Dodecafluoro-1-heptanol]
Description: as §1

[4] = compound: O=S(=O)(O)C(F)(F)C(F)(F)C(F)(F)C(F)(F)C(F)(F)C(F)(F)C(F)(F)C(F)(F)F [Potassium perfluorooctanesulfonate]
Description: as §1

1-(Perfluorohexyl)octane = compound: CCCCCCCCC(F)(F)C(F)(F)C(F)(F)C(F)(F)C(F)(F)C(F)(F)F [1-(Perfluorohexyl)octane]
Description: as §1

Test System | level (log10) (Perfluorooctanamidine; 6700 nM) | level (log10) (Perfluorooctanamidine; 20000 nM) | level (log10) (Perfluorooctanamidine; 60000 nM) | level (log10) ([1]; 6700 nM) | level (log10) ([1]; 20000 nM) | level (log10) ([1]; 60000 nM) | level (log10) (Perfluorohexanoic acid; 6700 nM) | level (log10) (Perfluorohexanoic acid; 20000 nM) | level (log10) (Perfluorohexanoic acid; 60000 nM) | level (log10) ([2]; 6700 nM) | level (log10) ([2]; 20000 nM) | level (log10) ([3]; 6700 nM) | level (log10) ([3]; 20000 nM) | level (log10) ([3]; 60000 nM) | level (log10) ([4]; 6700 nM) | level (log10) ([4]; 20000 nM) | level (log10) ([4]; 60000 nM) | level (log10) (1-(Perfluorohexyl)octane; 6700 nM) | level (log10) (1-(Perfluorohexyl)octane; 20000 nM)
3C:CCL2/MCP-1 | 0.0185 ± 0.012 | 0.0085 ± 0.011 | 0.062 | 0.0045 ± 0.015 | 0.006 ± 0.034 | 0.01 ± 0.016 | -0.006 ± 0.0028 | -0.0145 ± 0.005 | 0.0115 ± 0.022 | 0.015 ± 0.054 | -0.0065 ± 0.037 | 0.0225 ± 0.021 | 0.0145 ± 0.023 | 0.0325 ± 0.012 | -0.056 ± 0.098 | -0.0125 ± 0.0035 | 0.009 ± 0.02 | -0.008 ± 0.0014 | 0.0205 ± 0.023
3C:CD54/ICAM-1 | -0.0065 ± 0.0035 | -0.038 ± 0.013 | -0.049 | 0.0005 ± 0.0064 | -0.0055 ± 0.018 | -0.0175 ± 0.022 | 0.005 ± 0.013 | -0.0045 ± 0.016 | -0.0005 ± 0.019 | -0.0075 ± 0.0092 | -0.0085 ± 0.019 | -0.009 ± 0.011 | -0.003 ± 0.0099 | -0.0055 ± 0.0021 | -0.001 ± 0.0071 | 0.0235 ± 0.005 | 0.046 ± 0.0071 | 0.0025 ± 0.013 | 0.0165 ± 0.005
3C:CD62E/E-Selectin | -0.0045 ± 0.023 | -0.005 ± 0.027 | -0.039 | -0.01 ± 0.038 | -0.015 ± 0.058 | 0.006 ± 0.033 | -0.0065 ± 0.0092 | -0.007 ± 0.011 | 0.0145 ± 0.029 | -0.005 ± 0.0057 | 0.001 ± 0.017 | -0.0135 ± 0.025 | -0.007 ± 0.0042 | 0.0205 ± 0.025 | -0.0025 ± 0.015 | 0.0195 ± 0.046 | 0.063 ± 0.035 | -0.0065 ± 0.011 | -0.02 ± 0.0071
3C:CD106/VCAM-1 | -0.017 ± 0.028 | -0.037 ± 0.031 | -0.088 | -0.021 ± 0.0057 | -0.0295 ± 0.026 | -0.025 ± 0.023 | -0.002 ± 0.018 | -0.0025 ± 0.029 | 0.005 ± 0.044 | -0.005 ± 0.0014 | -0.001 ± 0.021 | 0.001 ± 0.0042 | -0.0245 ± 0.032 | -0.0195 ± 0.016 | 0.001 ± 0.016 | 0.013 ± 0.023 | 0.0375 ± 0.037 | -0.009 ± 0.0057 | 0.0045 ± 0.0092
3C:CD141/Thrombomodulin | -0.015 ± 0.031 | -0.021 ± 0.024 | -0.013 | -0.032 ± 0.078 | -0.0295 ± 0.022 | -0.0405 ± 0.029 | -0.0205 ± 0.005 | -0.022 ± 0.027 | -0.006 | -0.017 ± 0.016 | -0.008 ± 0.02 | -0.007 ± 0.057 | 0.0065 ± 0.044 | -0.017 ± 0.058 | 0.007 ± 0.018 | -0.0055 ± 0.033 | 0.041 ± 0.0071 | 0.0125 ± 0.015 | -0.0105 ± 0.018
3C:CD142/Tissue Factor | -0.02 ± 0.018 | -0.0105 ± 0.012 | -0.014 | 0.009 ± 0.0028 | 0.018 ± 0.0071 | 0.022 ± 0.0085 | 0.011 ± 0.0085 | -0.0135 ± 0.0092 | 0.0005 ± 0.012 | -0.008 ± 0.057 | 0.025 ± 0.0057 | 0.001 ± 0.0057 | 0.017 ± 0.041 | 0.001 ± 0.05 | -0.018 ± 0.024 | -0.0065 ± 0.04 | 0.049 ± 0.02 | -0.0025 ± 0.0078 | 0.0215 ± 0.023
BE3C:Keratin 8/18 | -0.0165 ± 0.0021 | -0.014 ± 0.0057 | 0.007 | 0.0065 ± 0.0021 | -0.015 ± 0.011 | -0.004 ± 0.0057 | -0.017 ± 0.0057 | -0.0125 ± 0.0035 | -0.0175 ± 0.021 | -0.0025 ± 0.015 | 0.0095 ± 0.0092 | -0.004 ± 0.0042 | 0.006 ± 0.014 | -0.0135 ± 0.0035 | 0.0225 ± 0.00071 | 0.013 ± 0.0085 | -0.0155 ± 0.019 | 0.011 ± 0.0071 | 0.004 ± 0.054
BE3C:MMP-1 | 0.0525 ± 0.03 | 0.057 ± 0.044 | 0.262 | 0.019 ± 0.013 | 0.0225 ± 0.028 | 0.072 ± 0.048 | -0.0075 ± 0.0064 | 0 ± 0.011 | 0.0275 ± 0.012 | 0.083 ± 0.024 | 0.277 ± 0.0064 | 0.0045 ± 0.022 | 0 ± 0.025 | 0.029 ± 0.0057 | 0.182 ± 0.038 | 0.157 ± 0.021 | 0.198 ± 0.012 | 0.0155 ± 0.018 | 0.0395 ± 0.053
BE3C:MMP-9 | -0.0115 ± 0.005 | -0.015 ± 0.023 | -0.001 | -0.0025 ± 0.025 | -0.003 ± 0.014 | 0.0195 ± 0.033 | -0.0155 ± 0.018 | -0.005 ± 0.0071 | 0.0145 ± 0.013 | 0.001 ± 0.014 | -0.04 ± 0.014 | -0.009 ± 0.0028 | -0.0105 ± 0.00071 | -0.02 ± 0.0028 | -0.0035 ± 0.012 | -0.13 ± 0.013 | -0.126 ± 0.024 | -0.0065 ± 0.0021 | -0.005 ± 0.0057
BE3C:PAI-I | 0.0015 ± 0.00071 | -0.006 ± 0.0099 | -0.021 | -0.0035 ± 0.0064 | 0.027 ± 0.011 | 0.044 ± 0.0057 | -0.019 ± 0.018 | -0.029 ± 0.011 | 0.0065 ± 0.022 | 0.0005 ± 0.0035 | -0.215 ± 0.017 | -0.007 ± 0.0057 | -0.009 ± 0.0099 | -0.0105 ± 0.0078 | -0.0115 ± 0.012 | -0.255 ± 0.03 | -0.253 ± 0.037 | -0.025 ± 0.0057 | -0.024
BE3C:SRB | -0.0075 ± 0.005 | -0.001 ± 0.016 | 0.009 | 0.003 ± 0.0028 | -0.0015 ± 0.005 | 0.012 ± 0.018 | -0.001 | -0.006 ± 0.0014 | 0.009 ± 0.018 | -0.0045 ± 0.0064 | -0.0805 ± 0.005 | 0.001 ± 0.0071 | -0.009 ± 0.011 | 0.0025 ± 0.00071 | -0.0075 ± 0.0021 | -0.245 ± 0.034 | -0.306 ± 0.033 | -0.0005 ± 0.0021 | 0.002 ± 0.0028
BE3C:tPA | 0 ± 0.0028 | -0.006 ± 0.0014 | 0.019 | -0.0005 ± 0.005 | -0.0035 ± 0.013 | 0.0265 ± 0.013 | -0.032 ± 0.054 | -0.0405 ± 0.016 | -0.046 ± 0.018 | 0.0195 ± 0.023 | -0.0985 ± 0.023 | -0.0125 ± 0.0064 | -0.0285 ± 0.018 | -0.029 ± 0.018 | 0.115 ± 0.0035 | -0.101 ± 0.027 | -0.165 ± 0.03 | -0.0015 ± 0.03 | 0 ± 0.033
BE3C:uPA | -0.008 ± 0.011 | -0.0095 ± 0.0078 | 0.004 | 0.0025 ± 0.011 | -0.009 ± 0.0085 | 0.0025 ± 0.005 | -0.03 ± 0.013 | -0.01 ± 0.018 | 0.0025 ± 0.016 | 0.0035 ± 0.011 | -0.0125 ± 0.011 | -0.0055 ± 0.032 | -0.004 ± 0.027 | -0.0055 ± 0.0035 | 0.0125 ± 0.0092 | -0.028 ± 0.0099 | -0.036 ± 0.016 | -0.0145 ± 0.012 | -0.0145 ± 0.0092
